Data as given in patent US20240358693A1, “METHODS OF TREATING PAIN” (Aisa Pharma, Inc., priority 2023, published 2024).

Test system: participants with SSc-RP
Assay: Scleroderma Health Assessment Questionnaire (SHAQ): disability indices and visual analog scales
Format: in vivo, human
Source text: The standard, validated, patient reported outcome measures tool for SSc patients, the Scleroderma Health Assessment Questionnaire (SHAQ), will be used to assess the participant qualify of life. Details are attached in the Appendix. The participant quality of life will be scored, and a disability index calculated for each questionnaire completed by the patient at Screening and each in-clinic visit. The absolute change in participant quality of life from baseline to the end of each dosing period will be calculated similar to frequency data as before.
The SHAQ includes a Raynaud's VAS, which will be reported at screening and each in-clinic visit. The absolute change in Raynaud-VAS, assessed by the participants response to the SHAQ question ‘In the past 7 days, how much have your Raynaud's interfered with your daily activities?’ at baseline and the end of each dosing period will be calculated similar to frequency data as before.
The SHAQ is used to calculate a Disability Index to assess the participant qualify of life. The eight categories assessed by the Disability Index are 1) dressing and grooming, 2) arising, 3) eating, 4) walking, 5) hygiene, 6) reach, 7) grip, and 8) common daily activities. For each of these categories, patients report the amount of difficulty they have in performing two or three specific activities.
There are four possible responses for the Disability Index questions: • Without any difficulty=0 • With some difficulty=1 • With much difficulty=2 • Unable to do=3. • The highest score reported by the patient for any component question of the eight categories determines the score for that category. • If a component question is left blank or the response is too ambiguous to assign a score, then the score for that category is determined by the remaining completed question(s). • If all component questions are blank or if more than one answer is given, then follow up with the respondent is required. • If the respondent's mark is between the response columns, then move it to the closest one. If it's directly between the two, move it to the higher one.
Each of the disability items on the SHAQ has a companion aids/devices variable that is used to record what type(s) of assistance, if any, the participant uses for his/her usual activities. These variables (see below) are coded as follows: • 0=No assistance is needed. • 1=A special device is used by the patient in his/her usual activities. • 2=The patient usually needs help from another person. • 3=The patient usually needs BOTH a special device AND help from another person.
The scoring variables and scoring rules permit the computation of two disability indices, the Standard Disability Index and the Alternative Disability Index.
This question results in a new set of category scores that are computed by adjusting the score for each category, if necessary, based on the patient's use of an aid or device or assistance for that category. If either devices and/or help from another person are checked for a category, the score is set to “2”, unless the score is already “3” (i.e., scores of “0” or “1” are increased to “2”). For example, if the highest score for the dressing category is “1”, and the patient says they use a device for dressing, the computed category score would be “2”. The sum of the computed categories scores is then calculated and divided by the number of categories answered. This gives a score in the 0 to 3 range.
The aid and device variables are not used to calculate the alternative disability index; it is calculated by adding the scores for each of the categories and dividing by the number of categories answered. This gives a score in the 0 to 3 range.
The standard, validated, patient reported outcome measures tool for SSc patients, the SHAQ, was collected at the time points specified in the study schedules (FIG. 2 and FIGS. 4A and 4B) to assess the participant's quality of life. The SHAQ included a Raynaud's VAS that will also be reported separately.

[1] = Pooled Cilnidipine (N = 7), sensitivity analysis, Modified ITT, Part A
[2] = Pooled Cilnidipine (N = 8), Day 12, PP Population Part A, SSc patients
[3] = Pooled Cilnidipine (N = 8), PP Population Part A, SSc patients
[4] = Pooled Cilnidipine (n = 7), mITT population

## COCCOC(=O)C1=C(C)NC(C)=C(C(=O)OC/C=C/c2ccccc2)C1c1cccc([N+](=O)[O-])c1 (stereo not shown) [Cilnidipine, cilnidipine]
[1]
  SHAQ VAS Breathing Problems: Change from Baseline, Median: 0.000
  SHAQ VAS Breathing Problems: Day 12, Mean: 1.029
  SHAQ VAS Breathing Problems: Day 12, Median: 0.000
  SHAQ VAS Breathing Problems: Percent Change from Baseline, Mean: −8.17%
  SHAQ VAS Breathing Problems: Percent Change from Baseline, Median: −41.33%
  SHAQ VAS Finger Ulcers: Baseline, Mean: 1.171
  SHAQ VAS Finger Ulcers: Baseline, Median: 0.300
  SHAQ VAS Finger Ulcers: Change from Baseline, Mean: −0.643
  SHAQ VAS Finger Ulcers: Change from Baseline, Median: 0.000
  SHAQ VAS Finger Ulcers: Day 12, Mean: 0.529
  SHAQ VAS Finger Ulcers: Day 12, Median: 0.000
  SHAQ VAS Finger Ulcers: Percent Change from Baseline, Mean: −17.08%
  SHAQ VAS Finger Ulcers: Percent Change from Baseline, Median: −50.82%
  SHAQ VAS Intestinal Problems: Baseline, Mean: 2.057
  SHAQ VAS Intestinal Problems: Baseline, Median: 1.000
  SHAQ VAS Intestinal Problems: Change from Baseline, Mean: −0.943
  SHAQ VAS Intestinal Problems: Change from Baseline, Median: 0.000
  SHAQ VAS Intestinal Problems: Day 12, Mean: 1.114
  SHAQ VAS Intestinal Problems: Day 12, Median: 0.600
  SHAQ VAS Intestinal Problems: Percent Change from Baseline, Mean: −32.42%
  SHAQ VAS Intestinal Problems: Percent Change from Baseline, Median: −44.12%
  SHAQ VAS Overall Disease Severity: Baseline, Mean: 2.700
  SHAQ VAS Overall Disease Severity: Baseline, Median: 2.900
  SHAQ VAS Overall Disease Severity: Change from Baseline, Mean: −1.214
  SHAQ VAS Overall Disease Severity: Change from Baseline, Median: −1.500
  SHAQ VAS Overall Disease Severity: Day 12, Mean: 1.486
  SHAQ VAS Overall Disease Severity: Day 12, Median: 1.200
  SHAQ VAS Overall Disease Severity: Percent Change from Baseline, Mean: −59.80%
  SHAQ VAS Overall Disease Severity: Percent Change from Baseline, Median: −55.86%
  SHAQ VAS Pain: Baseline, Mean: 2.057
  SHAQ VAS Pain: Baseline, Median: 1.700
  SHAQ VAS Pain: Change from Baseline, Mean: −0.529
  SHAQ VAS Pain: Change from Baseline, Median: −0.500
  SHAQ VAS Pain: Day 12, Mean: 1.529
  SHAQ VAS Pain: Day 12, Median: 1.000
  SHAQ VAS Pain: Percent Change from Baseline, Mean: −31.22%
  SHAQ VAS Pain: Percent Change from Baseline, Median: −44.98%
  SHAQ VAS Raynaud's: Baseline, Mean: 1.900
  SHAQ VAS Raynaud's: Baseline, Median: 1.100
  SHAQ VAS Raynaud's: Change from Baseline, Mean: −0.357
  SHAQ VAS Raynaud's: Change from Baseline, Median: −0.300
  SHAQ VAS Raynaud's: Day 12, Mean: 1.543
  SHAQ VAS Raynaud's: Day 12, Median: 1.100
  SHAQ VAS Raynaud's: Percent Change from Baseline, Mean: −18.64%
  SHAQ VAS Raynaud's: Percent Change from Baseline, Median: −38.67%
[2]
  SHAQ Standard Disability Index, Change from Baseline, Mean: −0.031
  SHAQ Standard Disability Index, Change from Baseline, Median: 0.000
  SHAQ Standard Disability Index, Percent Change from Baseline, Mean: −16.00%
  SHAQ Standard Disability Index, Percent Change from Baseline, Median: 0.00%
[3]
  SHAQ Standard Disability Index, In-Clinic Visit (Day 12), Mean: 0.469
  SHAQ Standard Disability Index, In-Clinic Visit (Day 12), Median: 0.188
[4]
  SHAQ % change VAS Raynauds: −17%
  SHAQ % change in Alternative Disability Index: −13%
  SHAQ % change in Pain: −31%
  SHAQ % change in Standard Disability Index: −25%
  SHAQ % change overall SSc Disease Severity: −60%
  SHAQ % improvement in Breathing (median): 41%
  SHAQ % improvement in VAS Digital Ulcers: 19%
Pooled cilnidipine (4)
  SHAQ % Δ from baseline, VAS Breathing, mean: −8.2%
  SHAQ % Δ from baseline, VAS Breathing, median: −41.3%
  SHAQ % Δ from baseline, VAS Finger Ulcers, mean: −17.1%
